# Measured values as given in patent publication US8710065B2, “Tricyclic inhibitors of kinases” (AbbVie Inc., priority 2011, dated 2014).
# pKd, pKi: −log10 of the molar value.
# Target: T1, GST-tagged-Wee1 kinase (Homo sapiens, UniProt P30291)
# T1 construct: purchased Carnabio (Carna Biosciences) 05-177
# Test: Wee1 time-resolved fluorescence equilibrium binding assay (displacement of Oregon Green-labeled ATP-competitive kinase probe)
# Conditions: not given
# Summary of the method: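 Time-resolved fluorescence equilibrium binding with GST-Wee1, measuring displacement of a rapidly reversible Oregon Green-labelled ATP-competitive probe by competitive inhibitors; values reported as Ki.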
# T1 sequence (P30291 whole entry): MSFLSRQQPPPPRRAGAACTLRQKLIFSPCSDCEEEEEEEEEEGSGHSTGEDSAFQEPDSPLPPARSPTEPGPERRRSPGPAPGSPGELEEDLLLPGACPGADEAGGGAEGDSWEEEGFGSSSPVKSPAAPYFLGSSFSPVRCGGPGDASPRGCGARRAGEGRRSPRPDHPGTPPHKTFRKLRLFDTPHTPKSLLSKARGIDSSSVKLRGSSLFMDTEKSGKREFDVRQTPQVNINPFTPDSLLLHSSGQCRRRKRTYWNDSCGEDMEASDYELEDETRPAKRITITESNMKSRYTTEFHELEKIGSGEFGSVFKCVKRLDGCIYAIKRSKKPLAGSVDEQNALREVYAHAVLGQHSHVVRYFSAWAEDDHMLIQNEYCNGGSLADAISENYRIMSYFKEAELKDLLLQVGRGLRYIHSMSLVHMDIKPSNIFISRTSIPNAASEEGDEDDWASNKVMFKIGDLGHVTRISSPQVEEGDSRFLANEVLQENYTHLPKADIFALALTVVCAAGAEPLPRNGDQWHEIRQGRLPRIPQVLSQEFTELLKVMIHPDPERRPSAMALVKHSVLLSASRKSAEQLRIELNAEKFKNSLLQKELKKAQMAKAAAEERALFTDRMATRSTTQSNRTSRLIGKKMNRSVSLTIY
row,Structure (SMILES),pKd
1,"O=C(NCCOCCOCCN1CCN(c2ccc(-c3cc4c(-c5cnc(C6(O)CCC6)s5)c(Cl)cnc4[nH]3)cc2)CC1)c1ccc2c(c1)C(=O)OC21c2cc(F)c(O)cc2Oc2cc(O)c(F)cc21 [fluorescent probe, N-(2-(2-(2-(4-(4-(5-chloro-4-(2-(1-hydroxycyclobutyl)thiazol-5-yl)-1H-pyrrolo[2,3-b]pyridin-2-yl)phenyl)piperazin-1-yl)ethoxy)ethoxy)ethyl)-2′,7′-difluoro-3′,6′-dihydroxy-3-oxo-3H-spiro[isobenzofuran-1,9′-xanthene]-5-carboxamide, reference compound]",6.86

# Same assay, conditions: read-out: Wee-1 inhibition (Ki)
row,Structure (SMILES),pKi
1,"CS(=O)(=O)N1Cc2cc(Nc3ncc4c(=O)n(-c5c(F)cccc5Cl)c5nccn5c4n3)ccc2C2(CC2)C1 [Example 243, 6-(2-chloro-6-fluorophenyl)-2-{[2′-(methylsulfonyl)-2′,3′-dihydro-1′H-spiro[cyclopropane-1,4′-isoquinolin]-7′-yl]amino}imidazo[1,2-a]pyrimido[5,4-e]pyrimidin-5(6H)-one]",> 8.00
2,"O=c1c2cnc(Nc3ccc(N4CCNCC4)nc3)nc2n2ccnc2n1-c1c(Cl)cccc1Cl [Example 198, 6-(2,6-dichlorophenyl)-2-{[6-(piperazin-1-yl)pyridin-3-yl]amino}imidazo[1,2-a]pyrimido[5,4-e]pyrimidin-5(6H)-one]",> 8.00
3,"CN1CCN(Cc2ccc(Nc3ncc4c(=O)n(-c5c(Cl)cccc5Cl)c5nccn5c4n3)cc2)CC1 [Example 127, 6-(2,6-dichlorophenyl)-2-({4-[(4-methylpiperazin-1-yl)methyl]phenyl}amino)imidazo[1,2-a]pyrimido[5,4-e]pyrimidin-5(6H)-one]",> 8.00
4,"CC1(C)CN(Cc2ccccc2C#N)Cc2cc(Nc3ncc4c(=O)n(-c5ccccc5Cl)c5nccn5c4n3)ccc21 [Example 356, 2-{[7-{[6-(2-chlorophenyl)-5-oxo-5,6-dihydroimidazo[1,2-a]pyrimido[5,4-e]pyrimidin-2-yl]amino}-4,4-dimethyl-3,4-dihydroisoquinolin-2(1H)-yl]methyl}benzonitrile]",7.00 to 8.00
5,"O=c1c2cnc(Nc3ccc4c(c3)CC(NCCF)C4)nc2n2ccnc2n1-c1c(Cl)cccc1Cl (stereo not drawn) [Example 296, 6-(2,6-dichlorophenyl)-2-({2-[(2-fluoroethyl)amino]-2,3-dihydro-1H-inden-5-yl}amino)imidazo[1,2-a]pyrimido[5,4-e]pyrimidin-5(6H)-one]",> 8.00
6,"CN1CCN(CCc2ccc(Nc3ncc4c(=O)n(-c5c(Cl)cccc5Cl)c5nccn5c4n3)cc2)CC1 [Example 118, 6-(2,6-dichlorophenyl)-2-({4-[2-(4-methylpiperazin-1-yl)ethyl]phenyl}amino)imidazo[1,2-a]pyrimido[5,4-e]pyrimidin-5(6H)-one]",> 8.00
7,"Cc1cc(Nc2ncc3c(=O)n(-c4c(Cl)cccc4Cl)c4nccn4c3n2)ccc1N1CCNCC1 [Example 110, 6-(2,6-dichlorophenyl)-2-{[3-methyl-4-(piperazin-1-yl)phenyl]amino}imidazo[1,2-a]pyrimido[5,4-e]pyrimidin-5(6H)-one]",> 8.00
8,"O=C(C1CC1)N1Cc2cc(Nc3ncc4c(=O)n(-c5c(Cl)cccc5Cl)c5nccn5c4n3)ccc2C2(CC2)C1 [Example 275, 2-{[2′-(cyclopropylcarbonyl)-2′,3′-dihydro-1′H-spiro[cyclopropane-1,4′-isoquinolin]-7′-yl]amino}-6-(2,6-dichlorophenyl)imidazo[1,2-a]pyrimido[5,4-e]pyrimidin-5(6H)-one]",> 8.00

# Other lines, results leading:
row,pKi,Structure (SMILES)
1,> 8.00,"CN(C)CCN1CCN(c2ccc(Nc3ncc4c(=O)n(-c5ccccc5Cl)c5nccn5c4n3)cc2)CC1 [Example 260, 6-(2-chlorophenyl)-2-[(4-{4-[2-(dimethylamino)ethyl]piperazin-1-yl}phenyl)amino]imidazo[1,2-a]pyrimido[5,4-e]pyrimidin-5(6H)-one]"
2,7.00 to 8.00,"O=c1c2cnc(Nc3ccc(-n4ccnc4)cc3)nc2n2ccnc2n1-c1ccccc1Cl [Example 80, 6-(2-chlorophenyl)-2-{[4-(1H-imidazol-1-yl)phenyl]amino}imidazo[1,2-a]pyrimido[5,4-e]pyrimidin-5(6H)-one]"
3,> 8.00,"O=c1c2cnc(Nc3ccc(N4CCSCC4)cc3)nc2n2ccnc2n1-c1ccccc1Cl [Example 270, 6-(2-chlorophenyl)-2-{[4-(thiomorpholin-4-yl)phenyl]amino}imidazo[1,2-a]pyrimido[5,4-e]pyrimidin-5(6H)-one]"
4,< 7.00,"CCN1CCN(c2ccc(Nc3ncc4c(=O)n(-c5ccccc5Cl)c5nccn5c4n3)nc2)CC1 [Example 339, 6-(2-chlorophenyl)-2-{[5-(4-ethylpiperazin-1-yl)pyridin-2-yl]amino}imidazo[1,2-a]pyrimido[5,4-e]pyrimidin-5(6H)-one]"
5,7.00 to 8.00,"O=c1c2cnc(Nc3ccc(OCCN4CCOCC4)cc3)nc2n2ccnc2n1-c1ccccc1Cl [Example 36, 6-(2-chlorophenyl)-2-({4-[2-(morpholin-4-yl)ethoxy]phenyl}amino)imidazo[1,2-a]pyrimido[5,4-e]pyrimidin-5(6H)-one]"
6,7.00 to 8.00,"O=c1c2cnc(Nc3ccc(N4CCCC(C(F)(F)F)C4)cc3)nc2n2ccnc2n1-c1ccccc1Cl (stereo not drawn) [Example 231, 6-(2-chlorophenyl)-2-({4-[3-(trifluoromethyl)piperidin-1-yl]phenyl}amino)imidazo[1,2-a]pyrimido[5,4-e]pyrimidin-5(6H)-one]"
7,> 8.00,"O=c1c2cnc(Nc3ccc(N4CCC[C@H]4CN4CCCC4)cc3)nc2n2ccnc2n1-c1ccccc1Cl [Example 249, 6-(2-chlorophenyl)-2-({4-[(2S)-2-(pyrrolidin-1-ylmethyl)pyrrolidin-1-yl]phenyl}amino)imidazo[1,2-a]pyrimido[5,4-e]pyrimidin-5(6H)-one]"
8,> 8.00,"O=C1CCCN1CCCNc1ccc(Nc2ncc3c(=O)n(-c4ccccc4Cl)c4nccn4c3n2)cc1 [Example 253, 6-(2-chlorophenyl)-2-[(4-{[3-(2-oxopyrrolidin-1-yl)propyl]amino}phenyl)amino]imidazo[1,2-a]pyrimido[5,4-e]pyrimidin-5(6H)-one]"
9,> 8.00,"CN1CCN(c2ccc(Nc3ncc4c(=O)n(-c5ccccc5Cl)c5nccn5c4n3)cc2Cl)CC1 [Example 32, 2-{[3-chloro-4-(4-methylpiperazin-1-yl)phenyl]amino}-6-(2-chlorophenyl)imidazo[1,2-a]pyrimido[5,4-e]pyrimidin-5(6H)-one]"
